Assay results as given in patent US9102607B2 (priority 2009, dated 2015).
Converted amounts (≈) assume the structure as drawn. “And” between values parts separate entries of the source, which are not always exact repeats. Equal values may be shown once. Read-outs that look alike come from different tables or passages of the source.

What was measured:
TPA-induced ear oedema = assay: Anti-inflammatory activity after a single topical administration in TPA-induced ear oedema; format: in vivo, mouse; settings: for Inhibition vs TPA (%) / Ear oedema Mean / anti-inflammatory effect (in words): single topical application; for Inhibition vs TPA (%): T6 h; for Ear oedema Mean: ear thickness at T6 h; for anti-inflammatory effect compared to BPO 5% (in words): compared to BPO at 5%
Method: the aim is to evaluate the anti-inflammatory activity of the peroxides by measuring the thickness of mouse ear after TPA topical application. The anti-inflammatory activity is defined as a inhibition percentage of the TAP-induced ear oedema.
An oedema was induced by a single topical application of 20 μl of TPA dissolved in acetone at 0.01%.
Then a single topical application of tested compounds dissolved in TPA solution.
Ear thickness was measured at T6 h.
Results are expressed in percentages based on the inhibition on the oedema induced by the TPA application.
Benzoyl peroxide (BPo) was tested 2 times as a reference peroxide.

P. acnes CIP53.117 = assay: microbe, parasite or virus in culture; format: cell-based, Propionibacterium acnes
[1] = compound 5% in TPA 0.01% solution
[2] = Cutibacterium acnes, CIP53, 72 h
[3] = compound 1% in TPA 0.01% solution
[4] = compound 2.5% in TPA 0.01% solution

Structure (SMILES) | Inhibition vs TPA (%) (TPA-induced ear oedema; [1]) | Ear oedema Mean (TPA-induced ear oedema; [1]) | MIC (P. acnes CIP53.117; [2]) [µg/mL] | anti-inflammatory effect (in words) (TPA-induced ear oedema; 1%, 2.5% and 5%) | anti-inflammatory effect compared to BPO 5% (in words) (TPA-induced ear oedema) | Inhibition vs TPA (%) (TPA-induced ear oedema; [3]) | Ear oedema Mean (TPA-induced ear oedema; [3]) | Inhibition vs TPA (%) (TPA-induced ear oedema; [4]) | Ear oedema Mean (TPA-induced ear oedema; [4]) | anti-inflammatory effect (in words) (TPA-induced ear oedema; at 5%) | MIC (P. acnes CIP53.117) [µg/mL]
O=C(OOC(=O)c1ccccc1)c1ccccc1 [BPO, Benzoyl peroxide, reference compound] | 21.4% and 27.8% | 17.60 and 20.80 | – | – | – | – | – | – | – | – | –
CCOC(=O)Oc1ccccc1C(=O)OOC(=O)c1ccccc1 [Example 1, (2-(Ethoxycarbonyloxy)benzoyl)benzoyl peroxide] | 53.5% | 13.40 | 80 (≈ 242 µM) | dose-dependent anti-inflammatory effect | significantly superior | 13.9 | 24.80 | 29.9 | 20.20 | – | –
CC(C)(C)OC(=O)Oc1ccccc1C(=O)OOC(=O)c1ccccc1 [Example 2, (2-(tert-Butoxycarbonyloxy)benzoyl)benzoyl peroxide] | – | – | 40 (≈ 112 µM) | – | – | – | – | – | – | – | –
CCOC(=O)Oc1ccccc1C(=O)OOC(=O)c1ccccc1OC(=O)OCC [Example 3, Bis(2-(ethoxycarbonyloxy)benzoyl)peroxide] | 81.1% | 4.80 | 160 (≈ 382 µM) | strong dose-dependent anti-inflammatory effect | – | 45.7 | 13.80 | 66.1 | 8.60 | – | –
CC(C)OC(=O)Oc1ccccc1C(=O)OOC(=O)c1ccccc1 [Example 5, (2-(Isopropoxycarbonyloxy)benzoyl)benzoyl peroxide] | 72.3% | 6.20 | 40 (≈ 116 µM) | – | stronger anti-inflammatory effect | 8.9 | 20.40 | 44.6 | 12.40 | significant anti-inflammatory effect | –
CC(C)OC(=O)Oc1ccccc1C(=O)OOC(=O)c1ccccc1OC(=O)OC(C)C [Example 6, Bis(2-(isopropoxycarbonyloxy)benzoyl)peroxide] | 93.8% | 1.40 | 80 (≈ 179 µM) | strong dose-dependent anti-inflammatory effect | stronger anti-inflammatory effect | 57.1 | 9.60 | 78.6 | 4.80 | – | –
CC(C)(C)C(=O)Oc1ccccc1C(=O)OOC(=O)c1ccccc1 [Example 9, (2-(tert-Butyryloxy)benzoyl)benzoyl peroxide] | – | – | – | – | – | – | – | – | – | – | 320 (≈ 935 µM)
CC(C)C(=O)Oc1ccccc1C(=O)OOC(=O)c1ccccc1 [Example 10, (2-(Isobutyryloxy)benzoyl)benzoyl peroxide] | – | – | 80 (≈ 244 µM) | – | – | – | – | – | – | – | –
O=C(CC12CC3CC(CC(C3)C1)C2)Oc1ccccc1C(=O)OOC(=O)c1ccccc1 [Example 12, [2-(2-(Adamantan-1-yl)acetoxy)benzoyl]benzoyl peroxide] | – | – | 320 (≈ 736 µM) | – | – | – | – | – | – | – | –
